Laboratory results published in patent EP4603105A1, “PHARMACEUTICAL COMPOSITION CONTAINING CYCLIC COMPOUND HAVING SELECTIVE KRAS INHIBITORY EFFECT AGAINST HRAS AND NRAS” (CHUGAI SEIYAKU KABUSHIKI KAISHA, priority 2022, dated 2024).

What was measured:
[1] = biological target: GDP-bound KRAS wild-type protein (Homo sapiens, UniProt P01116); experiment: Binding to KRAS by surface plasmon resonance (SPR), dissociation constant KD
Procedure, shortened: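 GDP-bound biotin-Avi RAS captured at ~100–300 RU, 30°C, pH 7.4 HBS containing 10 µM GDP, 10 mM MgCl2, 1 mM DTT, 0.01% Tween 20 and 4% DMSO. KD by 1:1 fitting.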

[2] = biological target: GDP-bound NRAS wild-type protein (Homo sapiens, UniProt P01111); experiment: Binding to NRAS by surface plasmon resonance (SPR), KD and KD ratio to KRAS; conditions: ratio of KD for GDP-bound NRAS wild-type protein to KD for KRAS
Sequence of GDP-bound NRAS wild-type protein (P01111 whole entry): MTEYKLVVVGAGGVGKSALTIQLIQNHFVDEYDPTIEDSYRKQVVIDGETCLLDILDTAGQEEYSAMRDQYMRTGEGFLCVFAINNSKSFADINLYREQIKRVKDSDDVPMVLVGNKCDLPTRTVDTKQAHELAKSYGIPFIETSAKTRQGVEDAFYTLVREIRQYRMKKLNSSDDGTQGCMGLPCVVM
Procedure, shortened: (§1)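 Each cycle, GDP-bound biotin-Avi RAS was captured (~100–300 RU), compound concentrations were injected low to high for 75 s each at 100 µL/min, then the chip was regenerated. Buffer: HBS pH 7.4, 10 mM MgCl2, 10 µM GDP, 1 mM DTT, 4% DMSO; 30°C. KD from a 1:1 binding model.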

[3] = biological target: HRAS wild-type protein (Homo sapiens, UniProt P01112); experiment: Binding to HRAS by surface plasmon resonance (SPR), KD and KD ratio to KRAS; conditions: ratio of KD for HRAS wild-type protein to KD for KRAS
Sequence of HRAS wild-type protein (P01112 whole entry): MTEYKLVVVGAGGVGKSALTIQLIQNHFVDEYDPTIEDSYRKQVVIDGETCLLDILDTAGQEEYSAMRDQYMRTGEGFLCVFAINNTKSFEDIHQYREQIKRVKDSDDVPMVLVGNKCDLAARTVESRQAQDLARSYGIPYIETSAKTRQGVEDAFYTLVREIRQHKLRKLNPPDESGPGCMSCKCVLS
Procedure, shortened: as §1

[4] = tested on: human lung cancer strain NCI-H441; assay type: cell-based
Procedure, shortened: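 Signal came from […] measured per well once the reagent was added. Beforehand, cells were cultured at 37°C and 5% carbon dioxide on a compound series serially diluted in dimethyl sulfoxide.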

[5] = tested on: human gastric cancer strain SNU-1; assay type: cell-based
Procedure: (§2) A test compound was dispensed into a U-bottom 384-well plate as 40 nL serially diluted dimethyl sulfoxide solutions using a liquid handler Echo (LABCYTE). As for human gastric cancer strain SNU-1 (ATCC), a cell suspension was prepared so as to have 250 cells/40 µL in an RPMI-1640 medium (Sigma) supplemented with 10% fetal bovine serum (Sigma), a 2.5 g/L D-(+)-glucose solution, 10 mmol/L HEPES, and 1 mmol/L sodium pyruvate. This cell suspension was dispensed in an amount of 40 µL per well into a plate containing the test compound, and cultured at 37°C in a 5% carbon dioxide gas incubator. Seven days later, 20 µL of CellTiter-Glo (registered trademark) (Promega) was added to each well and luminescence was measured.

[6] = tested on: human pancreatic cancer strain KP4; assay type: cell-based
Procedure: as §2, with “pancreatic” for “gastric”, “KP4 (Institute of Physical and Chemical Research),” for “SNU-1 (ATCC),”, “500” for “250”, “a DMEM/Ham's F-12” for “an RPMI-1640”, “(Nacalai Tesque)” for “(Sigma)”, “(Sigma).” for “(Sigma), a 2.5 g/L D-(+)-glucose solution, 10 mmol/L HEPES, and 1 mmol/L sodium pyruvate.”

[7] = tested on: human colorectal cancer strain GP2d; assay type: cell-based
Procedure: as §2, with “colorectal” for “gastric”, “GP2d (ECACC),” for “SNU-1 (ATCC),”, “500” for “250”, “a Dulbecco's modified Eagle” for “an RPMI-1640”, “medium” for “medium (Sigma)”, “(Sigma).” for “(Sigma), a 2.5 g/L D-(+)-glucose solution, 10 mmol/L HEPES, and 1 mmol/L sodium pyruvate.”

[8] = tested on: human gastric cancer strain GSU; assay type: cell-based
Procedure: as §2, with “GSU (Institute of Physical and Chemical Research),” for “SNU-1 (ATCC),”, “200” for “250”, “(Sigma).” for “(Sigma), a 2.5 g/L D-(+)-glucose solution, 10 mmol/L HEPES, and 1 mmol/L sodium pyruvate.”

[9] = tested on: human ovarian cancer strain OV7; assay type: cell-based
Procedure: A test compound was dispensed into a U-bottom 384-well plate as 40 nL serially diluted dimethyl sulfoxide solutions using a liquid handler Echo (LABCYTE). As for human ovarian cancer strain OV7 (ECACC), a cell suspension was prepared so as to have 250 cells/40 µL in a DMEM/Ham's F-12 medium (Nacalai Tesque) supplemented with 5% fetal bovine serum (Sigma), 0.5 µg/mL hydrocortisone, and 10 µg/mL insulin. This cell suspension was dispensed in an amount of 40 µL per well into a plate containing the test compound, and cultured at 37°C in a 5% carbon dioxide gas incubator. Seven days later, 20 µL of CellTiter-Glo (registered trademark) (Promega) was added to each well and luminescence was measured.

[10] = tested on: human bladder cancer strain UM-UC-3; assay type: cell-based
Procedure: as §2, with “human bladder” for “human gastric”, “strain UM-UC-3” for “strain SNU-1”, “an MEM” for “an RPMI-1640”, “medium (Nacalai Tesque)” for “medium (Sigma)”, “(Sigma), an MEM non-essential amino acids solution (100X),” for “(Sigma), a 2.5 g/L D-(+)-glucose solution, 10 mmol/L HEPES,”, “measured. […]” for “measured.”

Sequence of GDP-bound KRAS wild-type protein (P01116 1-188 isoform P01116-2): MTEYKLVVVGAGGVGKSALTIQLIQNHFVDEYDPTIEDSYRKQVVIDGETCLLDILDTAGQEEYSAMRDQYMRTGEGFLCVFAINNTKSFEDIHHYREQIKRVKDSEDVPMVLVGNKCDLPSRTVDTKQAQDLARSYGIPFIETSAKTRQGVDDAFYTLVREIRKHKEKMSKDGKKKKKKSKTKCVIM

Row | Compound | Kd ([1]; 1:1 binding model) | IC50 [4] | IC50 [5] | IC50 [6] | IC50 [7] | IC50 [8] | IC50 [9] | IC50 [10] | Kd ([1]; Single Cycle Kinetics) | NRAS /KRAS [2] | HRAS /KRAS [3]
1 | CCC(CC)[C@H]1C(=O)N(C)[C@H](C(=O)N(C)C)CC(=O)N(C)[C@@H](COC)C(=O)N[C@@H]([C@@H](C)CC)C(=O)N(C)CC(=O)N(C)[C@H]2C/C=C\CCN(C2=O)[C@@H](Cc2ccc(C)cc2)C(=O)N(C)CC(=O)N[C@@H](CCc2ccc(C(F)(F)F)c(Cl)c2)C(=O)N2CC3(CC3)C[C@H]2C(=O)NC2(CC(C)(C)C2)C(=O)N1C [PP2967] | 0.41 nM | 17 nM | 35.6 nM | 61.3 nM | 27.2 nM | 5.2 nM | 57.1 nM | 21.5 nM |  | AA (a compound having 20 or more is denoted as AA) | A (a compound having 10 or more and less than 20 is denoted as A)
2 | CCC[C@H]1C(=O)N[C@@H]([C@@H](C)CC)C(=O)N(C)CC(=O)N(C)[C@H]2C/C=C\CCN(C2=O)[C@@H](Cc2ccc(C)cc2)C(=O)N(C)CC(=O)N[C@@H](CCc2cc(F)c(C(F)(F)F)c(F)c2)C(=O)N2CC3(CC3)C[C@H]2C(=O)N(C)C2(CCC2)C(=O)N(C)[C@@H](C2CCCC2)C(=O)N(C)[C@H](C(=O)N(C)C)CC(=O)N1C [PP3327] |  | 4.4 nM | 2.4 nM | 4 nM | 0.7 nM | 0.5 nM | 1.6 nM | 0.6 nM | 0.019 nM | A (a compound having 10 or more and less than 20 is denoted as A) | A (a compound having 10 or more and less than 20 is denoted as A)
3 | CCC[C@H]1C(=O)N[C@@H]([C@@H](C)CC)C(=O)N(C)CC(=O)N(C)[C@H]2C/C=C\CCN(C2=O)[C@@H](Cc2ccc(C)cc2)C(=O)N(C)CC(=O)N[C@@H](CCc2ccc(C(F)(F)F)c(OC)c2)C(=O)N2C[C@H](OCC)C[C@H]2C(=O)OC2(CCC2)C(=O)N(C)[C@@H](C2CCCC2)C(=O)N(C)[C@H](C(=O)N(C)C)CC(=O)N1C [PP3388, (2S,8S,12R,14S,20S,23S,27S,30S,36S,38Z)-20-cyclopentyl-12-ethoxy-8-[2-[3-methoxy-4-(trifluoromethyl)phenyl]ethyl]-N,N,4,19,22,26,32,35-octamethyl-30-[(1S)-1-methylpropyl]-3,6,9,15,18,21,25,28,31,34,42-undecaoxo-27-propyl-2-(p-tolylmethyl)spiro[16-oxa-1,4,7,10,19,22,26,29,32,35-decazatricyclo[34.5.1.0^10,14]dotetracont-38-ene-17,1'-cyclobutane]-23-carboxamide] |  | 1.2 nM | 7.4 nM | 10.5 nM | 4.6 nM | 1.2 nM | 6.7 nM | 4.9 nM | 0.16 nM | A (a compound having 10 or more and less than 20 is denoted as A) | B (a compound having 3 or more and less than 10 is denoted as B)

Continued, in another order:

Row | Kd ([1]; 1:1 binding model) | IC50 [4] | IC50 [5] | IC50 [6] | IC50 [7] | IC50 [8] | IC50 [9] | IC50 [10] | Kd ([1]; Single Cycle Kinetics) | Compound | NRAS /KRAS [2] | HRAS /KRAS [3]
4 | 0.54 nM | 19 nM | 24.2 nM | 56 nM | 23.6 nM | 1.9 nM | 31.8 nM | 20.6 nM |  | CCO[C@@H]1C[C@H]2C(=O)NC3(CC(C)(C)C3)C(=O)N(C)[C@@H](CC(C)(C)C)C(=O)N(C)[C@H](C(=O)N(C)C)CC(=O)N(C)[C@@H](COC)C(=O)N[C@@H]([C@@H](C)CC)C(=O)N(C3CC3)CC(=O)N(C)[C@H]3C/C=C\CCN(C3=O)[C@@H](Cc3ccc(C(F)(F)F)cc3)C(=O)N(C)CC(=O)N[C@@H](CCc3ccc(Cl)c(Cl)c3)C(=O)N2C1 [PP2750, (2S,8S,12R,14S,20S,23S,27S,30S,36S,38Z)-32-cyclopropyl-8-[2-(3,4-dichlorophenyl)ethyl]-20-(2,2-dimethylpropyl)-12-ethoxy-27-(methoxymethyl)-N,N,3',3',4,19,22,26,35-nonamethyl-30-[(1S)-1-methylpropyl]-3,6,9,15,18,21,25,28,31,34,42-undecaoxo-2-[[4-(trifluoromethyl)phenyl]methyl]spiro[1,4,7,10,16,19,22,26,29,32,35-undecazatricyclo[34.5.1.0^10,14]dotetracont-38-ene-17,1'-cyclobutane]-23-carboxamide] | AA (a compound having 20 or more is denoted as AA) | A (a compound having 10 or more and less than 20 is denoted as A)
5 | 0.041 nM | 2.9 nM | 2.5 nM | 6.8 nM | 2.8 nM | 0.6 nM | 7.7 nM | 2.7 nM |  | CCO[C@@H]1C[C@H]2C(=O)NC3(CC(C)(C)C3)C(=O)N(C)[C@@H](C3CCCC3)C(=O)N(C)[C@H](C(=O)N(C)C)CC(=O)N(C)[C@@H]([C@@H](C)OC)C(=O)N[C@@H]([C@@H](C)CC)C(=O)N(C)CC(=O)N(C)[C@H]3C/C=C\CCN(C3=O)[C@@H](Cc3ccc(C(F)(F)F)cc3)C(=O)N(C)CC(=O)N[C@@H](CCc3ccc(C(F)(F)F)c(OC)c3)C(=O)N2C1 [PP3194, (2S,8S,12R,14S,20S,23S,27S,30S,36S,38Z)-20-cyclopentyl-12-ethoxy-27-[(1R)-1-methoxyethyl]-8-[2-[3-methoxy-4-(trifluoromethyl)phenyl]ethyl]-N,N,3',3',4,19,22,26,32,35-decamethyl-30-[(1S)-1-methylpropyl]-3,6,9,15,18,21,25,28,31,34,42-undecaoxo-2-[[4-(trifluoromethyl)phenyl]methyl]spiro[1,4,7,10,16,19,22,26,29,32,35-undecazatricyclo[34.5.1.0^10,14]dotetracont-38-ene-17,1'-cyclobutane]-23-carboxamide] | A (a compound having 10 or more and less than 20 is denoted as A) | A (a compound having 10 or more and less than 20 is denoted as A)
6 | 0.26 nM | 14.9 nM | 26.7 nM | 28.7 nM | 12 nM | 3.2 nM | 20.4 nM | 15.4 nM |  | CCC[C@H]1C(=O)N[C@@H]([C@@H](C)CC)C(=O)N(C2CC2)CC(=O)N(C)[C@H]2C/C=C\CCN(C2=O)[C@@H](Cc2ccc(C(F)(F)F)cc2)C(=O)N(C)CC(=O)N[C@@H](CCc2cc(F)c(C(F)(F)F)c(F)c2)C(=O)N2C[C@H](OCC)C[C@H]2C(=O)NC2(CC(C)(C)C2)C(=O)N(C)[C@@H](CC(C)(C)C)C(=O)N(C)[C@H](C(=O)N(C)C)CC(=O)N1C [PP2742] | AA (a compound having 20 or more is denoted as AA) | A (a compound having 10 or more and less than 20 is denoted as A)
